Publication PMC9969396, “Development of Human Carbonic Anhydrase II Heterobifunctional Degraders” (Journal of Medicinal Chemistry, 2023)
Like-named read-outs stand apart in the source and are kept apart here.

Key:
[1] = target: T1, hCAII (Homo sapiens, UniProt P00918); test: colorimetric p-nitrophenyl acetate hCAII activity assay; format: biochemical
T1 construct: made in house; host or cells: Escherichia coli BL21(DE3), pACA plasmid (gift from Carol A. Fierke)
Method: To verify that the p-sulfamoyl benzamide MBP retained its binding following ligation with the linker and bulky recruiting group moieties, the inhibition activity of each degrader candidate was determined using a colorimetric p-nitrophenol acetate hCAII activity assay.[46] In short, recombinantly expressed hCAII was preincubated with the degrader candidate before the addition of p-nitrophenyl acetate, a substrate that upon enzymatic cleavage leads to acetic acid and p-nitrophenolate.
Recombinant hCAII was expressed and purified according to the protocol reported in the Supporting Information. […] Wells were prepared to a final volume of 100 μL per well, including buffer (50 mM HEPES, pH 8.0), enzyme (hCAII, 40 nM), inhibitor (varying concentrations), and substrate (p-nitrophenyl acetate, 500 μM). Inhibitors and protein were preincubated for 10 min at rt, and the substrate was added to the reaction mixture immediately before reading. […] The rate of absorbance for each replicate was corrected for substrate autohydrolysis and inherent inhibitor absorbance by subtracting the rate of absorbance from a blank sample lacking enzyme but containing the inhibitor and substrate. Samples lacking inhibitor but containing enzyme and substrate were used to define 100% hCAII activity. Samples lacking inhibitor and enzyme were used to define 0% hCAII activity. IC50 was determined using non-linear regression with a variable slope on the GraphPad Prism software.

[2] = target: T2, hCAII (Homo sapiens, UniProt P00918+Q96SW2); test: competition / mechanistic experiments on hCAII degradation in HEK293 cells, western blot; format: cell-based; details: then 50 nM for 6 h
T2 construct: HEK293 cells, a line known to abundantly express hCAII; endogenous in cells; host or cells: HEK293
Method: Competition experiments were performed to verify that the degradation activity of 11 was the result of a PROTAC-style mechanism requiring concurrent degrader engagement with both hCAII and CRBN.
After reaching 90% confluency, HEK293 cells were trypsinized, counted, and plated with 2 mL media at 2 × 10^6 cells per well on a tissue-culture-treated, 6-well plate. At the appropriate number of hours before reaching ∼90% confluency, cells were treated with DMSO solutions of the appropriate compounds (final concentration 0.5% DMSO per well). Upon reaching 90% confluency, typically 72 h, culture media were removed and the cells were washed with cold Dulbecco’s phosphate-buffered saline (DPBS). Lysis buffer, composed of cell lysis buffer (Cell Signaling Technology, 9803), protease inhibitor cocktail (Cell Signaling Technology, 5872), and 1 mM phenylmethylsulfonylfluoride, was added to each well, and the plates were rocked at 4 °C for 20 min. Cells were then scraped from the bottom of the plates, and the supernatant was collected after spinning down at 14,000g at 4 °C for 10 min and frozen at −80 °C. Lysates were thawed on ice, and the total protein concentration was measured using a Pierce bicinchoninic acid protein assay (Thermo Fisher Scientific, 23225). […] Following heating at 98 °C for 5 min and cooling to room temperature, the prepared samples were electrophoretically separated on a 4–20% TGX gel (Bio-Rad, 4568095) and transferred to a PVDF membrane (Amersham Hybond P 0.45 μm, 106000019) in a tris-glycine transfer buffer (Thermo Fisher Scientific, LC3675) with a 20% final MeOH concentration. […] The immunoblot was then analyzed using the ImageJ software as an 8-bit image. The brightness and contrast of the image were adjusted, and the integrated density was calculated for each protein band using the gel lane analysis tool. Relative hCAII expression was calculated by normalizing the hCAII/β-actin ratio in compound-treated wells to the hCAII/β-actin ratio in vehicle (DMSO)-treated wells and indicated as “hCAII Abundance (% DMSO)”.

[3] = target: T2, hCAII; test: time-course of hCAII abundance in HEK293 cells, western blot; format: cell-based; details: 50 nM
Method: To determine the efficiency of 11, hCAII abundance was evaluated in HEK293 cells that were dosed with 50 nM of 11 over 48 h. Depletion of hCAII relative to vehicle (DMSO) began within 2 h and reached a maximal effect by 6 h (Figure 5c). Sustained degradation was also observed for the entirety of the 48 h tested. Based on the results of this time-course dosing experiment, it appears that 11 begins degrading hCAII quickly after exposure to the cell and maintains prolonged activity after initial dosing.
After reaching 90% confluency, HEK293 cells were trypsinized, counted, and plated with 2 mL media at 2 × 10^6 cells per well on a tissue-culture-treated, 6-well plate. […] Lysates were thawed on ice, and the total protein concentration was measured using a Pierce bicinchoninic acid protein assay (Thermo Fisher Scientific, 23225). […] The immunoblot was then analyzed using the ImageJ software as an 8-bit image. The brightness and contrast of the image were adjusted, and the integrated density was calculated for each protein band using the gel lane analysis tool. Relative hCAII expression was calculated by normalizing the hCAII/β-actin ratio in compound-treated wells to the hCAII/β-actin ratio in vehicle (DMSO)-treated wells and indicated as “hCAII Abundance (% DMSO)”.

[4] = target: T2, hCAII; test: nine-point dose response hCAII degradation assay in HEK293 cells, western blot; format: cell-based
Method: Three biological replicates of HEK293 cells were dosed in parallel with 4 or 5 at concentrations ranging from 5 pM to 15 μM for 24 h prior to lysis. […] This phenomenon can be attributed to the binary complexes of degrader-POI and degrader-E3 ligase outcompeting the POI-degrader-E3 ligase ternary complex at high degrader concentrations. […] The half-maximal degradation (DC50 value reported as a 95% confidence interval) and maximum percentage of degradation (DMax) of each active degrader were determined using a least squares sigmoidal fitting of the degradation activity of dosing concentrations below the observable “hook effect” (Figure 2B).
Figure 3 Dose-dependent degradation of hCAII by 4 and 5. (A) Western blot images of HEK293 cells dosed for 24 h with degrader 4 (left) or 5 (right) at concentrations of 5 pM to 15 μM. (B) Dose response curves of hCAII abundance as a percent of DMSO vehicle for 4 (left) or 5 (right). Band intensities of blots from three biological replicates were quantified using ImageJ software (Experimental Section). Data were normalized to a vehicle-treated (DMSO) group and plotted as a sigmoidal curve. Nonlinear fitting of log([inhibitor]) vs response (three parameters) was generated for 4 with R^2 = 0.955 and 5 with R^2 = 0.855 in GraphPad Prism. Points marked with an asterisk indicate only two biological replicates. In all other cases, error bars represent the standard deviation of triplicate experiments. Full images of the western blots are provided in the Supporting Information (Figures S1 and S3).
Given the inactivity of 1–3 and increased potency of 4 over 5, a 12-atom linker appeared to be a preferred length for favorable ternary complex formation in the heterobifunctional degraders tested. To further examine the role of linker length and composition, we explored hydrocarbon linkers for their ability to improve degrader lipophilicity and membrane permeability without impacting the favorable ternary complex formation. […] Western blot analysis and quantification of three biological replicates identified the degradation of hCAII at concentrations of 11 as low as 50 pM and achieved near-complete hCAII degradation at concentrations of 5 nM (Figures 5A and S3).
After reaching 90% confluency, HEK293 cells were trypsinized, counted, and plated with 2 mL media at 2 × 10^6 cells per well on a tissue-culture-treated, 6-well plate. At the appropriate number of hours before reaching ∼90% confluency, cells were treated with DMSO solutions of the appropriate compounds (final concentration 0.5% DMSO per well). Upon reaching 90% confluency, typically 72 h, culture media were removed and the cells were washed with cold Dulbecco’s phosphate-buffered saline (DPBS). Lysis buffer, composed of cell lysis buffer (Cell Signaling Technology, 9803), protease inhibitor cocktail (Cell Signaling Technology, 5872), and 1 mM phenylmethylsulfonylfluoride, was added to each well, and the plates were rocked at 4 °C for 20 min. Cells were then scraped from the bottom of the plates, and the supernatant was collected after spinning down at 14,000g at 4 °C for 10 min and frozen at −80 °C. Lysates were thawed on ice, and the total protein concentration was measured using a Pierce bicinchoninic acid protein assay (Thermo Fisher Scientific, 23225). […] Following heating at 98 °C for 5 min and cooling to room temperature, the prepared samples were electrophoretically separated on a 4–20% TGX gel (Bio-Rad, 4568095) and transferred to a PVDF membrane (Amersham Hybond P 0.45 μm, 106000019) in a tris-glycine transfer buffer (Thermo Fisher Scientific, LC3675) with a 20% final MeOH concentration. The membrane was rocked at 4 °C with fluorescent blocking buffer (Thermo Fisher Scientific, 37565) for 1 h and then incubated with primary antibodies (hCAII Rabbit mAb, 1:1000 and β-actin Rabbit pAb, 1:2000 in fluorescent blocking buffer) at 4 °C overnight. […]

[5] = SMILES csv supplement, read-out: hCAII IC50
[6] = recombinant hCAII 40 nM, p-nitrophenyl acetate 500 μM, pH 8.0, 95% confidence interval, read-out: IC50 (nM), hCAII inhibition activity (Table S1)
[7] = enzyme concentration of 40 nM, read-out: IC50, below the detection limit of the assay

Structure (SMILES) | IC50 [1, 5] [nM] | IC50 [1, 6] [nM] | further results
NS(=O)(=O)c1ccc(C(=O)NCCOCCNc2cccc3c2C(=O)N(C2CCC(=O)NC2=O)C3=O)cc1 (stereo not shown) [Compound 1, N-(2-(2-((2-(2,6-Dioxopiperidin-3-yl)-1,3-dioxoisoindolin-4-yl)amino)ethoxy)ethyl)-4-sulfamoylbenzamide] | 48 ± 5 | 48 ± 5 | 
NS(=O)(=O)c1ccc(C(=O)NCCOCCOCCOCCNc2cccc3c2C(=O)N(C2CCC(=O)NC2=O)C3=O)cc1 (stereo not shown) [Compound 3, N-(2-(2-(2-(2-((2-(2,6-Dioxopiperidin-3-yl)-1,3-dioxoisoindolin-4-yl)amino)ethoxy)ethoxy)ethoxy)ethyl)-4-sulfamoylbenzamide] | 41 ± 5 | 41 ± 5 | 
NS(=O)(=O)c1ccc(C(=O)NCCOCCNC(=O)CC23CC4CC(CC(C4)C2)C3)cc1 [Compound 6, N-(2-(2-(2-((3r,5r,7r)-Adamantan-1-yl)acetamido)ethoxy)ethyl)-4-sulfamoylbenzamide] |  | 57 ± 5 | 
NS(=O)(=O)c1ccc(C(=O)NCCOCCOCCNC(=O)CC23CC4CC(CC(C4)C2)C3)cc1 [Compound 7, N-(2-(2-(2-(2-((3r,5r,7r)-Adamantan-1-yl)acetamido)ethoxy)ethoxy)ethyl)-4-sulfamoylbenzamide] |  | ≤ 20 | IC50 [1, 7]: ≤ 20 nM
NS(=O)(=O)c1ccc(C(=O)NCCOCCOCCOCCNC(=O)CC23CC4CC(CC(C4)C2)C3)cc1 [Compound 8, N-(1-((3r,5r,7r)-Adamantan-1-yl)-2-oxo-6,9,12-trioxa-3-azatetradecan-14-yl)-4-sulfamoylbenzamide] | 28 ± 4 | 28 ± 4 | 
NS(=O)(=O)c1ccc(C(=O)NCCCOCCCCOCCCNC(=O)CC23CC4CC(CC(C4)C2)C3)cc1 [Compound 9, N-(3-(4-(3-(2-((3r,5r,7r)-Adamantan-1-yl)acetamido)propoxy)butoxy)propyl)-4-sulfamoylbenzamide] | 35 ± 5 | 35 ± 5 | 
NS(=O)(=O)c1ccc(C(=O)NCCCOCCOCCOCCCNC(=O)CC23CC4CC(CC(C4)C2)C3)cc1 [Compound 10, N-(1-((3r,5r,7r)-Adamantan-1-yl)-2-oxo-7,10,13-trioxa-3-azahexadecan-16-yl)-4-sulfamoylbenzamide] |  | ≤ 20 | IC50 [1, 7]: ≤ 20 nM
NS(=O)(=O)c1ccc(C(=O)NCCCCCCCCCCCCNc2cccc3c2C(=O)N(C2CCC(=O)NC2=O)C3=O)cc1 (stereo not shown) [Compound 11, N-(12-((2-(2,6-Dioxopiperidin-3-yl)-1,3-dioxoisoindolin-4-yl)amino)dodecyl)-4-sulfamoylbenzamide] |  |  | hCAII degradation after MG132 pre-treatment ([2]; HEK293, 1 μM MG-132 for 1 h): complete loss of hCAII degradation activity; hCAII degradation after acetazolamide pre-treatment ([2]; HEK293, 1 h preincubation with 5 μM acetazolamide): no degradation of hCAII; hCAII degradation after lenalidomide pre-treatment ([2]; HEK293, 1 h preincubation with 5 μM lenalidomide): no degradation of hCAII; time to maximal effect [3]: ≤ 6 h; Dmax ([4]; HEK293, HEK293 cells, 24 h, read-out: DMax (maximum percentage of degradation)): 100%; concentration achieving near-complete hCAII degradation ([4]; HEK293 cells, 24 h): 5 nM; degradation of hCAII at concentrations as low as ([4]; HEK293 cells, 24 h): 50 pM; DC50 ([4]; HEK293 cells, 24 h, 5 pM to 15 μM, 95% confidence interval, read-out: DC50 (half-maximal degradation)): 0.5 ± 0.3 nM; hook effect (attenuation of target degradation at high concentration) ([4]; HEK293 cells, 24 h, doses up to 15 μM): no appreciable “hook effect”; fold increase in activity over 4 ([4]; from DC50 values): 10 fold
COCCNC(=O)c1ccc(S(N)(=O)=O)cc1 [Compound 13, N-(2-Methoxyethyl)-4-sulfamoylbenzamide] | 58 ± 8 | 58 ± 8 | 
